The source of these data is EPA's ToxValDB 9.5.

In the data set the test system is Rattus norvegicus. As to conditions: for LOEL / NOEL: oral, gavage.
The mark [1] stands for this setting: reproduction developmental, duration: 28 days, inhalation, M, Wistar, generation: P0, P0: Whole Body: Body Weight Change.
The mark [2] stands for this setting: short-term, duration: 28 days, inhalation, F, Wistar, Kidney: Creatinine (CREAT).
Setting [3] is: short-term, duration: 28 days, inhalation, F, Wistar, Kidney: Creatinine (CREAT) + Multi-Organ: Gamma-Glutamyl Transferase (GGT).
[4] abbreviates: short-term, duration: 28 days, inhalation, F, Wistar, Kidney: Fluoride, Total Urinary Excretion + Kidney: Fluoride, Urine + Kidney: Urinary Fluoride/Creatinine Ratio + Liver: Liver Weight, ….
Setting [5] is: short-term, duration: 28 days, inhalation, F, Wistar, Liver: Liver Weight, Absolute + Liver: Liver Weight, Relative + Lung: Lung Histopathology + Lung: Lung Weight, Absolute + Lung: Lung Weight….
Setting [6] is: short-term, duration: 28 days, inhalation, F, Wistar, Liver: Total Bilirubin (TBILI).
The mark [7] stands for this setting: short-term, duration: 28 days, inhalation, M, Wistar, Kidney: Creatinine (CREAT) + Whole Body: Body Weight Change + Whole Body: Food Conversion Efficiency + Whole Body: Food Intake.
[8] abbreviates: short-term, duration: 28 days, inhalation, M, Wistar, Kidney: Fluoride, Total Urinary Excretion + Kidney: Fluoride, Urine + Kidney: Urinary Fluoride/Creatinine Ratio + Lung: Lung Histopathology….
Where [9] appears, read: short-term, duration: 28 days, inhalation, M, Wistar, Liver: Albumin (A) + Liver: Triglycerides (TRIG) + Multi-Organ: Cholesterol, Total + Multi-organ: Glucose (GLU).
[10] abbreviates: short-term, duration: 28 days, inhalation, M, Wistar, Liver: Albumin (A) + Multi-Organ: Glucose (GLU) + Renal: Fluoride, Total Urinary Excretion + Renal: Fluoride, Urine + Renal: Fluoride/….
[11] abbreviates: short-term, duration: 28 days, inhalation, M, Wistar, Lung: Lung Histopathology + Lung: Lung Weight, Absolute + Lung: Lung Weight, Relative + Spleen: Spleen Weight, Absolute + Spleen: Spleen ….
Where [12] appears, read: short-term, duration: 28 days, inhalation, M, Wistar, Whole Body: Body Weight Change.
The mark [13] stands for this setting: subchronic, duration: 91 days, inhalation, F, Wistar, Blood: Albumin/Globulin (A/G) Ratio + Liver: Liver Weight, Relative + Multi-Organ: Acyl-CoA Oxidase Activity.
The mark [14] stands for this setting: subchronic, duration: 91 days, inhalation, F, Wistar, Kidney: Kidney Weight, Relative + Liver: Albumin (A).
Setting [15] is: subchronic, duration: 91 days, inhalation, M, Wistar, Blood: Mean Corpuscular Hemoglobin (MCH) + Liver: Albumin (A) + Liver: Alkaline Phosphatase (ALP) + Liver: Cholesterol (CHOL), Total + Liver….
The mark [16] stands for this setting: subchronic, duration: 91 days, inhalation, M, Wistar, Blood: Mean Corpuscular Hemoglobin (MCH), Recovery + Blood: Mean Corpuscular Volume (MCV) + Blood: Platelet Count (PLT), Recovery + Blood: ….
Where [17] appears, read: reproduction developmental, duration: 28 days, inhalation, M, Sprague-Dawley, generation: P0, P0: Other Systems: Bone: Bone Histopathology + P0: Other Systems: Esophagus: Esophagus Histopathology + P0: Other Systems: Eye: Eye ….
Setting [18] is: reproduction developmental, duration: 50 days, inhalation, F, Sprague-Dawley, generation: P0, P0: Other Systems: Bone: Bone Histopathology + P0: Other Systems: Esophagus: Esophagus Histopathology + P0: Other Systems: Eye: Eye ….
Where [19] appears, read: short-term, duration: 3 weeks, inhalation, M/F, Alpk:Albino, Whole Body: Body Weight Change + Whole Body: Clinical Observations.
Setting [20] is: chronic, duration: 92 days, F, Wistar, kidney: relative kidney weight.
Setting [21] is: chronic, duration: 92 days, M, Wistar, liver: relative liver weight.
The mark [22] stands for this setting: short-term, duration: 28 days, F, Wistar, kidney: absolute kidney weight + kidney: relative kidney weight + liver: absolute liver weight + liver: relative liver weight.
Where [23] appears, read: short-term, duration: 28 days, M, Wistar, adrenal gland: absolute adrenal gland weight + adrenal gland: relative adrenal gland weight + testis: relative testis weight + thymus: ….
[24] abbreviates: short-term, duration: 28 days, M, Wistar, liver: relative liver weight + spleen: absolute spleen weight.

What is called NOAEL is the highest tested level that showed no adverse finding. The term LOAEL denotes the lowest dose or exposure tested at which an adverse effect was seen. In the case of `O=C(C(F)(F)C(F)(F)F)C(F)(C(F)(F)F)C(F)(F)F` [Perfluoro-2-methyl-3-pentanone], the NOAEL by setting is: (developmental, duration: 13 days, inhalation, M/F, Sprague-Dawley, generation: F1, F1: Uterus: Resorptions, Early + F1: Uterus: Resorptions, Late + F1: Whole Body: Fetal Alterations, Total) 38800 mg/m3; (reproduction developmental, duration: 4 days, inhalation, F, Wistar, generation: F1, F1: Whole Body: Body Weight Change + F1: Whole Body: Body Weight, Absolute + F1: Whole Body: Clinical Observations + F1: Whole Body: Live …) 38800 mg/m3; (reproduction developmental, duration: 4 days, inhalation, F, Wistar, generation: P0, P0: Uterus: Estrous Cycle + P0: Whole Body: Body Weight Change + P0: Whole Body: Body Weight, Absolute + P0: Whole Body: Clinical …) 38800 mg/m3; (reproduction developmental, duration: 13 days, inhalation, F, Sprague-Dawley, generation: P0, P0: Ovary: Corpora Lutea + P0: Ovary: Ovary, Necropsy + P0: Placenta: Normal Placenta + P0: Uterus: Implantation + P0: Uterus: Uterine …) 38800 mg/m3; (reproduction developmental, duration: 28 days, inhalation, M, Wistar, generation: P0, P0: Epididymis: Epididymis Weight, Absolute + P0: Testis: Testis Weight, Absolute + P0: Whole Body: Body Weight, Absolute + P0: Whole Body: …) 38800 mg/m3; under setting [1], 3880 mg/m3. Besides, the NOAEL reads like this: (short-term, duration: 28 days, inhalation, F, Wistar, Adrenal: Adrenal Gland Histopathology + Bladder: Urinary Bladder Histopathology + Blood: Albumin/Globulin (A/G) Ratio + Blood: Hematocrit (…) 259000 mg/m3; (short-term, duration: 28 days, inhalation, F, Wistar, Blood: Albumin/Globulin (A/G) Ratio + Blood: Hematology, Unspecified + Liver: Albumin (A) + Liver: Liver Histopathology + Multi-Organ: …) 245000 mg/m3; under setting [2], 129000 mg/m3; under setting [3], 125000 mg/m3; under setting [4], 49600 mg/m3; under setting [5], 51700 mg/m3. For the same compound, the no-observed-adverse-effect level (NOAEL) under setting [6] is 12900 mg/m3; the no observed adverse effect level (NOAEL) (short-term, duration: 28 days, inhalation, M, Wistar, Adrenal: Adrenal Gland Histopathology + Bladder: Urinary Bladder Histopathology + Blood: Hematocrit (HCT) + Blood: Hemoglobin (HGB) + Blood…) turned out to be 259000 mg/m3; the no observed adverse effect level (NOAEL) (short-term, duration: 28 days, inhalation, M, Wistar, Blood: Albumin/Globulin (A/G) Ratio + Blood: Hematology, Unspecified + Kidney: Creatinine (CREAT) + Liver: Phospholipid + Multi-Organ: Gamma…) was 245000 mg/m3; the NOAEL under setting [7] amounted to 129000 mg/m3; the NOAEL under setting [8] worked out at 49600 mg/m3; the NOAEL under setting [9] amounted to 12400 mg/m3. For the same compound, the no observed adverse effect level (NOAEL) reads like this: under setting [10], 12900 mg/m3; under setting [11], 51700 mg/m3; under setting [12], 125000 mg/m3; under setting [13], 12900 mg/m3; (subchronic, duration: 91 days, inhalation, F, Wistar, Blood: Albumin/Globulin (A/G) Ratio, Recovery + Blood: Mean Corpuscular Hemoglobin (MCH) + Blood: Mean Corpuscular Volume (MCV) + Blood: Red…) 38800 mg/m3; under setting [14], 3880 mg/m3. Also, the NOAEL by setting is: (subchronic, duration: 91 days, inhalation, M, Wistar, Blood: Albumin/Globulin (A/G) Ratio, Recovery + Brain: Brain Weight, Absolute + Brain: Brain Weight, Relative + Eye: Ophthalmology, …) 38800 mg/m3; under setting [15], 3880 mg/m3; under setting [16], 12900 mg/m3. The LOAEL runs as follows: under setting [1], 12900 mg/m3; under setting [2], 259000 mg/m3; under setting [3], 245000 mg/m3; under setting [4], 125000 mg/m3; under setting [5], 129000 mg/m3; (short-term, duration: 28 days, inhalation, F, Wistar, Liver: Peroxisome Induction + Liver: Phospholipid + Liver: Triglycerides (TRIG) + Spleen: Spleen Weight, Absolute + Spleen: Spleen Weight, …) 12900 mg/m3. The LOAEL was 12400 mg/m3 (short-term, duration: 28 days, inhalation, F, Wistar, Liver: Peroxisome Induction + Liver: Phospholipid + Spleen: Spleen Weight, Absolute + Spleen: Spleen Weight, Relative); 51700 mg/m3 under setting [6]; 12900 mg/m3 (short-term, duration: 28 days, inhalation, M, Wistar, Blood: Albumin/Globulin (A/G) Ratio + Liver: Liver Histopathology + Liver: Liver Weight, Absolute + Liver: Liver Weight, Relative + Liver: …); 259000 mg/m3 under setting [7]; 125000 mg/m3 under setting [8]; 49600 mg/m3 under setting [9]. In addition, the lowest observed adverse effect level (LOAEL) under setting [10] was determined as 51700 mg/m3; the LOAEL (short-term, duration: 28 days, inhalation, M, Wistar, Liver: Liver Histopathology + Liver: Liver Weight, Absolute + Liver: Liver Weight, Relative + Liver: Peroxisome Induction) is 12400 mg/m3; the lowest-observed-adverse-effect level (LOAEL) under setting [11] was 129000 mg/m3; the LOAEL under setting [12] is 245000 mg/m3; the LOAEL under setting [13] amounted to 38800 mg/m3; the lowest observed adverse effect level (LOAEL) under setting [14] turned out to be 12900 mg/m3. Also, the lowest-observed-adverse-effect level (LOAEL) reads like this: (subchronic, duration: 91 days, inhalation, F, Wistar, Spleen: Spleen Weight, Absolute) 3880 mg/m3; (subchronic, duration: 91 days, inhalation, M, Wistar, Blood: Albumin/Globulin (A/G) Ratio + Kidney: Kidney Weight, Absolute + Kidney: Kidney Weight, Relative + Liver: Liver Weight, Absolute + …) 3880 mg/m3; under setting [15], 12900 mg/m3; under setting [16], 38800 mg/m3.

For the compound `FC(F)=C(F)OC(F)(F)C(F)(F)C(F)(F)F` [Perfluoropropyl trifluorovinyl ether], the LOAEL by setting is: (reproduction developmental, duration: 28 days, inhalation, M, Sprague-Dawley, generation: P0, P0: Cardiovascular: Aorta: Aorta Histopathology + P0: Cardiovascular: Heart: Heart Histopathology + P0: Cardiovascular: Heart: Heart Weight…) 43900 mg/m3; under setting [17], 43900 mg/m3; (reproduction developmental, duration: 50 days, inhalation, F, Sprague-Dawley, generation: P0, P0: Cardiovascular: Aorta: Aorta Histopathology + P0: Cardiovascular: Heart: Heart Histopathology + P0: Cardiovascular: Heart: Heart Weight…) 43900 mg/m3; under setting [18], 43900 mg/m3. Also, the no-observed-adverse-effect level (NOAEL) reads like this: under setting [17], 10900 mg/m3; under setting [18], 10900 mg/m3. For the same compound, the NEL (short-term, duration: 3 weeks, inhalation, F, Alpk:Albino, Multi-organ: Uterus and Gonad (Unspecified) Histopathology) was 54400 mg/m3; the NEL (short-term, duration: 3 weeks, inhalation, M/F, Alpk:Albino, Blood: Potassium (K), Blood + Blood: Sodium (Na), Blood + Heart: Heart Histopathology + Kidney: Glucose (GLU), Urine + Kidney: Protein, …) worked out at 54400 mg/m3; the NEL under setting [19] is 27200 mg/m3; the NEL (short-term, duration: 3 weeks, inhalation, M, Alpk:Albino, Multi-organ: Epididymis and Gonad (Unspecified) Histopathology) worked out at 54400 mg/m3. Under setting [19], the LEL came out at 54400 mg/m3.

Take `Cc1ccc(S(=O)(=O)NC(=O)Nc2cccc(OS(=O)(=O)c3ccc(C)cc3)c2)cc1` [Pergafast 201]: the LOEL by setting is: under setting [20], 150 mg/kg-day; (chronic, duration: 92 days, F, Wistar, liver: absolute liver weight + liver: relative liver weight) 12.5 mg/kg-day; under setting [21], 150 mg/kg-day; under setting [22], 150 mg/kg-day; under setting [23], 750 mg/kg-day; (short-term, duration: 28 days, M, Wistar, brain: relative brain weight + liver: absolute liver weight) 30 mg/kg-day. Also, the LOEL under setting [24] turned out to be 150 mg/kg-day. Further, the NOEL stood at 50 mg/kg-day under setting [20]; 50 mg/kg-day under setting [21]; 30 mg/kg-day under setting [22]; 150 mg/kg-day under setting [23]; 30 mg/kg-day under setting [24].
